The source of these data is ChEMBL document CHEMBL1201862, “PubChem BioAssay data set” (2004).

Common to all, as to assay: growth of human tumour cells (NCI), 48 h
The subject of test [1] is A498.
Test [2] concerns ACHN.
The test system of test [3] is CAKI-1.
Test [4] relates to COLO 205.
Test [5] relates to DU-145.
The subject of test [6] is HCT-15.
Test [7] relates to Hs-578T.
The test system of test [8] is IGROV-1.
Test [9] deals with MCF7.
Test [10] relates to OVCAR-4.
The test system of test [11] is OVCAR-8.
The test system of test [12] is RXF 393.
Test [13] relates to SF-268.
Test [14] has as its system SF-295.
For test [15], the system named is SK-MEL-28.
The test system of test [16] is SK-MEL-2.
Test [17] relates to SK-OV-3.
For test [18], the system named is T47D.
Test [19] has as its system UACC-62.
For test [20], the system named is HL-60.

SMILES strings stand for the structures.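 Cultured in 96-well plates, cells were exposed to test compound for 48 hours across five concentrations. At the GI50, growth is halved.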 Calls of active or inactive are those of the source. No stated cut-off is given here; in the data, active = GI50 up to about 1.1 µM and inactive = higher.

With `O=c1cc(/C=C/c2ccc(O)c(O)c2)oc(/C=C/c2ccc(O)c(O)c2)c1`, the GI50 was 3.84 µM (inactive) in test [1]; 4.84 µM (inactive) in test [2]; 3.37 µM (inactive) in test [3]; 8.2 µM (inactive) in [4]; 4.55 µM (inactive) in test [5]; 5.68 µM in test [6]. Further, the GI50 in test [7] is 4.09 µM (inactive); in test [8] it was 4.17 µM (inactive); in test [9] it was 3.29 µM (inactive); in [10], 3.78 µM (inactive); in test [11] it was 4.4 µM (inactive); in [12], 2.72 µM (inactive). Moreover, the GI50 was 2.17 µM (inactive) in test [13]; 9.06 µM (inactive) in test [14]; 11.9 µM (inactive) in test [15]; 2.65 µM (inactive) in test [16]; 9.02 µM (inactive) in test [17]; 1.98 µM (inactive) in [18]. Besides, the GI50 in [19] was 2.37 µM (inactive).

`CCOC(=O)Cn1sc2ncc([N+](=O)[O-])cc2c1=O`: the GI50 in test [1] was > 100 µM (inactive); in test [2], 15.9 µM (inactive); in test [4] it was 13 µM (inactive); in [5], > 100 µM (inactive); in test [6], 16.4 µM; in test [20], 8.15 µM (inactive). The GI50 was 41 µM (inactive) in test [7]; 13.2 µM (inactive) in [8]; 18.1 µM (inactive) in test [9]; 18.8 µM (inactive) in test [10]; 16.3 µM (inactive) in [11]; 20 µM (inactive) in test [12]. Further, the GI50 in [13] is 24.5 µM (inactive); in test [14], 18.9 µM (inactive); in test [15], 15.1 µM (inactive); in test [16], 22.2 µM (inactive); in test [17], 18.3 µM (inactive); in [18] it was 16.5 µM (inactive). Further, the GI50 in [19] is 23 µM (inactive).

For the compound `Cc1cc(=O)oc2c(CN(CCCl)CCCl)c(O)ccc12`, the GI50 is 62.7 µM (inactive) in [1]; 13.6 µM (inactive) in test [2]; 6.78 µM (inactive) in test [3]; 18 µM (inactive) in test [4]; 36.5 µM (inactive) in test [5]; 56.9 µM in test [6]. Further, the GI50 in test [20] was 4.3 µM (inactive); in test [7], 72.3 µM (inactive); in test [8] it was 55.7 µM (inactive); in [9], 11.4 µM (inactive); in test [10] it was > 100 µM (inactive); in test [11], 54.6 µM (inactive). Moreover, the GI50 in test [12] was 30.5 µM (inactive); in test [13], 59.3 µM (inactive); in test [14], 11.8 µM (inactive); in test [15], 65.5 µM (inactive); in test [16], > 100 µM (inactive); in [18], 31.5 µM (inactive). In addition, the GI50 in test [19] was 5.56 µM (inactive).

As to `Cc1c2c(n(C)c1C)C(=O)C1C(C2=O)C2(C)c3ccccc3C1(C)c1ccccc12` (stereo not given), the GI50 in [1] was > 100 µM (inactive); in test [2] it was > 100 µM (inactive); in test [4], > 100 µM (inactive); in [5] it was > 100 µM (inactive); in test [6], greater than 100 µM; in [20] it was > 100 µM (inactive). The GI50 in [7], in [8], in test [9], in test [11], in test [12] and in [13] was > 100 µM (inactive) throughout. In addition, the GI50 in [14], in test [15], in test [16], in test [17], in test [18] and in test [19] was > 100 µM (inactive) each time.

Regarding `O=C1C2=C(SCCS2)C(=O)c2c(Sc3ccc(Cl)cc3)c(Sc3ccc(Cl)cc3)c(Sc3ccc(Cl)cc3)c(Sc3ccc(Cl)cc3)c21`, the GI50 in [1] was 29.2 µM (inactive); in [2] it was > 100 µM (inactive); in test [3] it was > 100 µM (inactive); in test [4] it was > 100 µM (inactive); in test [5], > 100 µM (inactive); in [6], greater than 100 µM. Moreover, the GI50 in [7] was 8.49 µM (inactive); in test [8], 99.1 µM (inactive); in test [9], > 100 µM (inactive); in [10], > 100 µM (inactive); in test [11], > 100 µM (inactive); in test [12] it was 27 µM (inactive). Also, the GI50 in [13] was > 100 µM (inactive); in test [14], 32.5 µM (inactive); in test [16], 41.9 µM (inactive); in test [17], 94.6 µM (inactive); in [18], > 100 µM (inactive); in test [19] it was 23.7 µM (inactive).

On to `Cc1c(C#N)c(N)[nH]c(=S)c1C#N`, for which the GI50 in test [1] was > 100 µM (inactive); in test [2], > 100 µM (inactive); in test [3] it was > 100 µM (inactive); in test [5] it was > 100 µM (inactive); in test [6] it was greater than 100 µM; in [20] it was > 100 µM (inactive). The GI50 in [7], in test [8], in test [9], in test [11], in test [12] and in [13] was > 100 µM (inactive) each time. In addition, the GI50 in [14], in test [15], in [16], in [18] and in test [19] was > 100 µM (inactive) each time.

Turning to `CN(C)c1ccc(/C=C2\C[C@H]3[C@@H]4CC=C5C[C@@H](O)CC[C@]5(C)[C@H]4CC[C@]3(C)[C@H]2O)cc1`, the GI50 in test [1] was 17.2 µM (inactive); in test [2], 16 µM (inactive); in test [4], 11 µM (inactive); in [5], 34.1 µM (inactive); in [6], 15.7 µM; in test [20] it was 31 µM (inactive). Also, the GI50 in [7] is 23.4 µM (inactive); in test [8], 19.2 µM (inactive); in test [9], 17.4 µM (inactive); in test [10] it was 35.6 µM (inactive); in [11], 3.84 µM (inactive); in test [12], 25.5 µM (inactive). Also, the GI50 in test [13] is 17 µM (inactive); in test [14], 20 µM (inactive); in [15] it was 20.4 µM (inactive); in [16] it was 20.9 µM (inactive); in [17] it was 31.2 µM (inactive); in test [18] it was 23.3 µM (inactive). In addition, in [19], the GI50 is 13.7 µM (inactive).

Turning to `Nc1ccc2c(c1)S(=O)(=O)c1cc(N)ccc1-2`, the GI50 in test [1] was > 100 µM (inactive); in test [2], > 100 µM (inactive); in test [3], > 100 µM (inactive); in [4], > 100 µM (inactive); in test [5] it was > 100 µM (inactive); in test [6] it was greater than 100 µM. Besides, the GI50 is 78.5 µM (inactive) in [20]; > 100 µM (inactive) in [7]; > 100 µM (inactive) in test [8]; > 100 µM (inactive) in test [9]; > 100 µM (inactive) in [10]; > 100 µM (inactive) in test [11]. The GI50 in [12], in [13], in [14], in [16], in [17] and in test [18] was > 100 µM (inactive) each time. Besides, the GI50 in test [19] is > 100 µM (inactive).

For `Cc1ccc(-c2ccc3c(c2)Sc2ccccc2O3)n1C`, the GI50 in [1] is 0.416 µM (active); in test [2] it was 3.57 µM (inactive); in test [3], 0.303 µM (active); in test [4], 0.232 µM (active); in test [5], 1.13 µM (inactive); in test [6], 0.143 µM. Also, the GI50 is 0.125 µM (active) in test [20]; 0.604 µM (active) in test [7]; 0.232 µM (active) in test [8]; 0.324 µM (active) in test [9]; 1.32 µM (inactive) in test [10]; 0.693 µM (active) in test [11]. In addition, the GI50 in test [12] is 0.283 µM (active); in test [13], 0.791 µM (active); in test [14] it was 0.165 µM (active); in test [16] it was 0.13 µM (active); in [17], 0.536 µM (active); in test [18], > 100 µM (inactive). The GI50 in test [19] was 0.0593 µM (active).

Turning to `C=C(C)[C@H]1C=C[C@@H](OC(=O)c2cccnc2)[C@@]23CO[C@@](C)([C@H](OC(=O)c4cccnc4)[C@@]4(OC(C)=O)C[C@H](C)[C@H](OCCC)[C@@H]4[C@H]2OC(C)=O)[C@H]13`, the GI50 was > 15 µM (inactive) in test [1]; > 15 µM (inactive) in [2]; > 15 µM (inactive) in [3]; 8.09 µM (inactive) in test [4]; > 15 µM (inactive) in [5]; greater than 15 µM in test [6]. Moreover, the GI50 in test [20] is 3.35 µM (inactive); in [7], 13.5 µM (inactive); in test [8] it was > 15 µM (inactive); in test [9], > 15 µM (inactive); in [10], 10.3 µM (inactive); in [11], > 15 µM (inactive). For the same compound, the GI50 in [12] was > 15 µM (inactive); in test [13], > 15 µM (inactive); in [14], 13.4 µM (inactive); in test [16], > 15 µM (inactive); in test [17] it was > 15 µM (inactive); in [18] it was > 15 µM (inactive). Also, the GI50 in test [19] was > 15 µM (inactive).

`CCOC(=O)CCC(NC(=O)c1ccc(Oc2nc3c(N)cc(C(F)(F)F)cc3nc2-c2ccccc2)cc1)C(=O)OCC` (stereo not given): the GI50 was > 35.5 µM (inactive) in test [1]; 8.24 µM (inactive) in test [2]; 2.82 µM (inactive) in test [3]; > 100 µM (inactive) in [4]; 17.3 µM (inactive) in [5]; greater than 100 µM in test [6]. The GI50 in test [20] was 38.8 µM (inactive); in test [7], 11.7 µM (inactive); in test [8], 33.4 µM (inactive); in [9], 37.1 µM (inactive); in [10], 19.2 µM (inactive); in test [11], 1.09 µM (active). The GI50 in test [12] is 0.402 µM (active); in test [13], 13.8 µM (inactive); in [14], 11 µM (inactive); in test [15], > 100 µM (inactive); in test [17] it was 13.5 µM (inactive); in test [18], 39.6 µM (inactive). The GI50 in test [19] was > 46.3 µM (inactive).
